Experimental data from article PMC2906706 (Cancer research, 2010).

Key:
OCT1 = biological target: T1, OCT1 (Homo sapiens, UniProt O15245); assay: inhibition of ASP+ uptake in HEK293 cells over-expressing OCT1; format: cell-based
T1 sequence (O15245 1-554): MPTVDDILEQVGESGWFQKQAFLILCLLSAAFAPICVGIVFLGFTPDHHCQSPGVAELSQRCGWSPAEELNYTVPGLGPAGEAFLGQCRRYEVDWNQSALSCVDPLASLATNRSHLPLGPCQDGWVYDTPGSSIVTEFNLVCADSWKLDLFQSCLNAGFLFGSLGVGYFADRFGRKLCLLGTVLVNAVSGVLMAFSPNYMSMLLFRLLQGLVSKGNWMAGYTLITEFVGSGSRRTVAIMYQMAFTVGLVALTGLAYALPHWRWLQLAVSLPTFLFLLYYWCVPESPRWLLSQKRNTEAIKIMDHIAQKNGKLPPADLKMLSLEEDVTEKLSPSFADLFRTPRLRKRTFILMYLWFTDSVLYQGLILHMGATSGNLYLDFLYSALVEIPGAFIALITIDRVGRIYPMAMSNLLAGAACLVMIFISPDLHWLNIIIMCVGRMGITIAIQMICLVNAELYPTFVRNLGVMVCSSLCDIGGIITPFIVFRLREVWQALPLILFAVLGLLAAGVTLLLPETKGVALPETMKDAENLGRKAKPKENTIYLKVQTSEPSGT

OCT2 = OCT2 (Homo sapiens, UniProt O15244); assay: inhibition of ASP+ uptake in HEK293 cells over-expressing OCT2; format: cell-based
Sequence of OCT2 (O15244 whole entry): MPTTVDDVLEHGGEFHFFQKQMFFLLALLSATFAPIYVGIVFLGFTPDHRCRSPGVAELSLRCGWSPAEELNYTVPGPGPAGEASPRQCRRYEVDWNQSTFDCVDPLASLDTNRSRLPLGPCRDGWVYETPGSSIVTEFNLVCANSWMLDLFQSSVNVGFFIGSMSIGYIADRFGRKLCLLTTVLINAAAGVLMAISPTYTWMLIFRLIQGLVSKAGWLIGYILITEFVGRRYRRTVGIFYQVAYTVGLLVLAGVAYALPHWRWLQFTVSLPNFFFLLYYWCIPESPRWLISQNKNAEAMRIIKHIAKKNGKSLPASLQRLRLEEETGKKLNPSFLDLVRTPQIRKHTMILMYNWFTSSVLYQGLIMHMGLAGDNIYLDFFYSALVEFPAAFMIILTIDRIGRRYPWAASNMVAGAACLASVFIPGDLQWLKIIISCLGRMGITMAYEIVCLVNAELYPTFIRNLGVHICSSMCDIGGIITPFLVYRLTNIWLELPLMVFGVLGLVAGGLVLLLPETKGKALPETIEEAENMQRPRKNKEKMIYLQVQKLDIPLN

- IC50 (OCT1): 27.1 µM
- IC50 (OCT2): 0.46 µM
SMILES: CN1CCN(CCOc2cc(OC3CCOCC3)c3c(Nc4c(Cl)ccc5c4OCO5)ncnc3c2)CC1 [saracatinib, N-(5-chloro-1,3-benzodioxol-4-yl)-7-[2-(4-methylpiperazin-1-yl)ethoxy]-5-(tetrahydro-2H-pyran-4-yloxy)quinazolin-4-amine]
